Data set [1] deals with Rattus norvegicus. Description: Antiinflammatory activity in po dosed rat assessed as inhibition of carrageenan-induced paw edema. The format is functional. For orientation: The carrageenan paw model is a standard test of acute inflammation.
Data set [2] deals with T1, Prostaglandin G/H synthase 1 (Ovis aries, UniProt P05979).
T1 sequence (P05979 whole entry): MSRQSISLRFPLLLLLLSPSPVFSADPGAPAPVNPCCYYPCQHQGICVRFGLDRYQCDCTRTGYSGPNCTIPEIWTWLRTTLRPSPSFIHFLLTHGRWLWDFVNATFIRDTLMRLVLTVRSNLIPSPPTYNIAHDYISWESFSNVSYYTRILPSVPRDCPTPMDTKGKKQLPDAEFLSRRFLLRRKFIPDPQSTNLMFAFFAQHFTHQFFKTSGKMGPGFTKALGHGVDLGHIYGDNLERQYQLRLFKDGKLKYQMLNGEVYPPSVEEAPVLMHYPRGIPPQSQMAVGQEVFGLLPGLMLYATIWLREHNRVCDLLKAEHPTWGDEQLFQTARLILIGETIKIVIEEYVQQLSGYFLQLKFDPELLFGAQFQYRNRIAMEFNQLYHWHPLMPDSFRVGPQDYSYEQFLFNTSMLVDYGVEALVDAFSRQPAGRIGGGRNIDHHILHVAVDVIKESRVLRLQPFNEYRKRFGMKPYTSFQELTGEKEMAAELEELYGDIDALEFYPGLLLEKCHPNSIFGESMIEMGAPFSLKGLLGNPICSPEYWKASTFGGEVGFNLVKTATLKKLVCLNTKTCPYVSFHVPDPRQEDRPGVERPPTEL
Description: Inhibition of ovine COX1 by enzyme immunoassay

The species named for data set [3] is Rattus norvegicus. Description: animal or person. To be noted: po, read-out: INH.
Data set [4] can be described thus: Induction of NO release in phosphate buffer at pH 7.4. The format is physicochemical.
Data set [5] in a line: Induction of NO release in presence of 5 mM L-cysteine. The format is physicochemical.
For data set [6], the species on record is Rattus norvegicus. The following applies: 100 mg/kg.
The nature of data set [7]: Selectivity ratio of IC50 for ovine COX1 to IC50 for human recombinant COX2.
Data set [8] concerns the target T2, Prostaglandin G/H synthase 1 (Ovis aries) (UniProt P05979).
T2 sequence (whole entry): T1 sequence (P05979 whole entry)
Description: Inhibition of ovine COX1 at 100 uM by enzyme immunoassay.

Calls of active or inactive are those of the source. The calls are words filed in the database; no cut-off is given here. Some results are limits rather than exact numbers.

With `CC(C)Cc1ccc(C(C)C(=O)O)cc1` (stereo unspecified) [IBUPROFEN], the ED50 in data set [1] was found to be 67.4 mg/kg.
`NS(=O)(=O)c1ccc(-n2nc(C(F)(F)F)cc2C2CCN(CCCCO[N+](=O)[O-])CC2)cc1` came in with a half-maximal inhibitory concentration (IC50) in data set [2] of 19.8 µM. Further, the inhibition in vivo at 100 mg/kg in data set [3] amounted to 9%. For the same compound, the results for the Activity in data set [4] and in data set [5] were 2.4% and 3.1%, respectively.
For `O=[N+]([O-])OCC(CO[N+](=O)[O-])O[N+](=O)[O-]` [NITROGLYCERIN], the Activity in data set [4] stood at 2.8%; in data set [5], 10.1%.
The compound `NS(=O)(=O)c1ccc(-n2nc(C(F)(F)F)cc2C2=CCN(CCCCO[N+](=O)[O-])CC2)cc1` came in with an IC50 in data set [2] of 16.2 µM. In addition, the inhibition entry in data set [6] is “inactive”. In addition, the Activity in data set [4] was found to be 5.8%; in data set [5] it was 7.1%.
In the case of `CS(=O)(=O)c1ccc(-n2nc(C(F)(F)F)cc2C2CCN(CCCCO[N+](=O)[O-])CC2)cc1`, the IC50 in data set [2] is greater than 100 µM. Moreover, the Ratio IC50 in data set [7] was greater than 6. Moreover, the Activity in data set [4] was determined as 3.8%; in data set [5] it was 8.4%. Further, the inhibition result in data set [8] was “inactive”. Besides, the ED50 in data set [1] came out at 132 mg/kg.
As for `CS(=O)(=O)c1ccc(-n2nc(C(F)(F)F)cc2C2=CCN(CCCCO[N+](=O)[O-])CC2)cc1`, it took 34.7 µM to reach half-maximal inhibition in data set [2] (IC50). Besides, the Activity in data set [4] is listed as 3.1%; in data set [5] it was 3.8%. In addition, in data set [1], the ED50 is 118 mg/kg.

For orientation: ED50 means the midpoint of the dose-response relation. What is called IC50 is the concentration that inhibits the measured activity by half. Low readings indicate greater potency, high ones weaker potency.

Values taken from ChEMBL document CHEMBL1156895 (Bioorg Med Chem Lett, 2010).
